Two compounds from publication PMC6053448, “Small molecule activator of Nm23/NDPK as an inhibitor of metastasis” (Scientific Reports, 2018) can be followed below.

Experiment [1] deals with T1, recombinant human Nm23-H1 (NDPK-A) (Homo sapiens, UniProt P15531).
T1 construct: gene NME1; pET-3c, E. coli BL21(DE3), no tag mentioned; ATP-sepharose purification
Kind of experiment: NDPK assay, activation. Type of experiment: biochemical. As to conditions: number only in supplement.

Experiment [2] deals with T1, recombinant human Nm23-H1 (NDPK-A). Put plainly: NDPK assay, double reciprocal plot. It is filed as biochemical. As to conditions: 5 µM ATP, without NMac1.

T1 sequence (P15531 whole entry): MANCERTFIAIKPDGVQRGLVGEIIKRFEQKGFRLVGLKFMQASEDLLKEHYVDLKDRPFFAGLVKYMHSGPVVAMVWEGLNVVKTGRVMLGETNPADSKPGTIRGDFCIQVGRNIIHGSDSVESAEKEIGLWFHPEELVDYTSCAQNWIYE

`COc1ccc(/C=C/[C@H]2CCC=C[C@@H]2c2ccc(OC)c(OC)c2)cc1OC` [NMac3, 3S-(3,4-dimethoxyphenyl)-4R-[(E)-3,4-dimethoxystyryl]cyclohex-1-ene]: the “% activation” value in experiment [1] is reported as “The chirality of the molecule did not affect the activation of Nm23-H1”.

`O=c1ccn([C@@H]2O[C@H](COP(=O)(O)OP(=O)(O)O)[C@@H](O)[C@H]2O)c(=O)[nH]1` [UDP]: in experiment [2], the Km result is on record as “NMac1 decreased the Km value of Nm23-H1 for substrate UDP without affecting Vmax”.
